Measurements published in article PMC6510822, “Identification of anticancer OATP2B1 substrates by an in vitro triple-fluorescence-based cytotoxicity screen” (Archives of Toxicology, 2019).
Read-outs that look alike come from different tables or passages of the source. Marks after values point to notes of the source that are not given here.

What was measured:
A431 cells [1] = assay: Fluorescence-based cytotoxicity assay, parental A431 eGFP
[2] = tested on: Mes-Sa-B1 cells (Pgp overexpressing); assay: Fluorescence-based cytotoxicity assay, Mes-Sa-B1 mOr; details: for IC50: fluorescent protein based assay; for RR (Mes-Sa-B1): resistance ratio = IC50 Mes-Sa-B1 / IC50 parental Mes-Sa, triple co-culture screen
[3] = tested on: A431-G2 cells (ABCG2 expressing); assay: Fluorescence-based cytotoxicity assay, ABCG2-expressing A431-G2 mOr; details: triple co-culture, result in words
Mes-Sa/Dx5 cells [4] = assay: PrestoBlue-based cytotoxicity assay, Mes-Sa/DX5; format: cell-based, human; details: PrestoBlue viability assay
Protocol: (§1) All experiments were performed using a robotic pipetting workstation (Hamilton Robotics STAR Let). Cells were seeded at a final cell density of 1875 cells per well in 384-well plates in the triple co-culture (625 cells from each lines) and at 2500 cells per well in the A431 control and A431-2B1 co-culture (1250 cells from both) systems. Co-cultured cells were incubated for 24 h at 37 °C and 5% CO2 under humidified atmosphere prior to the addition of drugs. […] Data were exported to a custom-made program for determining growth inhibition curves for each cell line. In confirmatory screens, compounds were tested with the same method in a nine-point dose response format. For validation, compounds were confirmed in cytotoxicity assays using the PrestoBlue cell viability reagent (ThermoFisher), according to the manufacturer’s instructions.

Mes-Sa cells [5] = assay: Fluorescence-based cytotoxicity assay, parental Mes-Sa mCh; details: fluorescent protein based assay
[6] = tested on: A431-B1 cells (ABCB1/P-glycoprotein expressing); assay: Fluorescence-based cytotoxicity assay, ABCB1-expressing A431-B1 mCh; details: for IC50: fluorescent protein based assay; for RR (A431B1): resistance ratio = IC50 A431B1 / IC50 parental A431, triple co-culture screen
A431B1 cells = assay: PrestoBlue-based cytotoxicity assay, A431B1; format: cell-based, human; details: PrestoBlue viability assay
Protocol: as §1

Mes-Sa-B1 cells = assay: PrestoBlue-based cytotoxicity assay, Mes-Sa-B1; format: cell-based, human; details: PrestoBlue viability assay
Protocol: as §1

Mes-Sa cells [7] = assay: PrestoBlue-based cytotoxicity assay, Mes-Sa; format: cell-based, human; details: PrestoBlue viability assay
Protocol: as §1

A431G2 cells = assay: PrestoBlue-based cytotoxicity assay, A431G2; format: cell-based, human; details: PrestoBlue viability assay
Protocol: as §1

Mes-Sa/Dx5 cells [8] = assay: Fluorescence-based cytotoxicity assay, Mes-Sa/Dx5 eGFP; details: for IC50: fluorescent protein based assay; for RR (Dx5): resistance ratio = IC50 Mes-Sa/Dx5 / IC50 parental Mes-Sa, triple co-culture screen
A431 cells [9] = assay: PrestoBlue-based cytotoxicity assay, A431; format: cell-based, human; details: PrestoBlue viability assay
Protocol: as §1

OATP2B1 [10] = assay: in vitro; details: human
OATP2B1 [11] = molecular target: T1, OATP2B1 (Homo sapiens, UniProt O94956); assay: Inhibition of OATP2B1-mediated Cascade Blue uptake (microplate-based uptake assay, A431-2B1 cells)
T1 sequence (O94956 1-709): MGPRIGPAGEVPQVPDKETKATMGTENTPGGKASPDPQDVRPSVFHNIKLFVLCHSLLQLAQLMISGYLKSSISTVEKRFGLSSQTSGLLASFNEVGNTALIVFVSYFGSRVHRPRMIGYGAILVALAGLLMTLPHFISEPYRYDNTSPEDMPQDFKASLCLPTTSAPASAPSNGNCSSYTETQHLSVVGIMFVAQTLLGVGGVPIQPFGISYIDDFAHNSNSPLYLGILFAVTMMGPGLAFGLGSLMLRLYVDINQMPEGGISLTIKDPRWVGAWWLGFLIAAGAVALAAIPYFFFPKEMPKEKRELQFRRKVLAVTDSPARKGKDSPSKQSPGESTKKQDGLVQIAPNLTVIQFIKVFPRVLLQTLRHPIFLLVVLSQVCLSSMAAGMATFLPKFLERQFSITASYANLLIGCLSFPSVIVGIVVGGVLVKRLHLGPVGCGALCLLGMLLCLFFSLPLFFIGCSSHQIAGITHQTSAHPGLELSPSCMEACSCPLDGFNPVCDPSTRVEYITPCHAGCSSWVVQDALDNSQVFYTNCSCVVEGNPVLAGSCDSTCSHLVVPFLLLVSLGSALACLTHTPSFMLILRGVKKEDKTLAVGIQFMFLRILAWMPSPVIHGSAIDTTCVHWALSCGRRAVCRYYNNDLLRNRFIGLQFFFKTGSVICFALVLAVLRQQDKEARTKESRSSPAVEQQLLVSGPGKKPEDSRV

[12] = tested on: A431-2B1 cells (OATP2B1 expressing); assay: Fluorescence-based cytotoxicity assay, OATP2B1-expressing A431-2B1 mCh
Mes-Sa/Dx5 cells [13] = tested on: Mes-Sa/Dx5 cells
OATP2B1 [14] = assay: Fluorescence-based cytotoxicity assay, OATP2B1-expressing A431-2B1 mCh; details: human
ABCG2 = assay: Fluorescence-based cytotoxicity assay, ABCG2-expressing A431-G2 mOr; details: human
ABCB1 (P-glycoprotein) = assay: Fluorescence-based cytotoxicity assay, ABCB1-expressing A431-B1 mCh; details: human
[15] = Homo sapiens, A-431, read-out: IC50 (µM) A431 eGFP, co-culture
[16] = Homo sapiens, A-431, read-out: IC50 (µM) A431 eGFP, monoculture
[17] = IC50 A431 eGFP / IC50 A4312B1 mCh, co-culture
[18] = IC50 A431 eGFP / IC50 A4312B1 mCh
[19] = primary screen, co-culture, Fig. 4 inset
[20] = A431-2B1 mCherry cells (OATP2B1-expressing), monoculture

SMILES | IC50 (OATP2B1 [11]) | IC50 (A431 cells [1]; [15]) | IC50 (A431 cells [1]; [16]) | RR (Mes-Sa-B1) [2] | RR (A431B1) [6] | RR (Dx5) (Mes-Sa/Dx5 cells [8]) | SR, co-culture [12, 17] | SR, monoculture [12, 18] | SR (A431-2B1 vs parental A431), screening of DTP Oncology Set IV [12, 19] | IC50 at […] (OATP2B1 [14]) | IC50 at […] (OATP2B1 [14]; [20]) | further results
Oc1c(CN2CCCCC2)ccc2cccnc12 [NSC57969] | – | – | – | – | – | – | – | – | – | – | – | IC50 (A431 cells [1]; read-out: IC50 A431, monoculture, fluorescent protein based assay, monoculture): 5.13 µM; IC50 (A431 cells [1]; read-out: IC50 A431, triple co-culture, fluorescent protein based assay, triple co-culture): 7.09 µM; IC50 ([2]; read-out: IC50 Mes-Sa-B1, monoculture, monoculture): 2.81 µM; IC50 ([2]; read-out: IC50 Mes-Sa-B1, triple co-culture, triple co-culture): 1.8 µM; Effect of ABCG2 expression on toxicity (A431-G2 vs parental A431) [3]: did not sensitize; IC50 (Mes-Sa/Dx5 cells [4]): 0.815 µM; IC50 (Mes-Sa cells [5]; read-out: IC50 Mes-Sa, monoculture, monoculture): 5.08 µM; IC50 (Mes-Sa cells [5]; read-out: IC50 Mes-Sa, triple co-culture, triple co-culture): 3.21 µM; IC50 ([6]; read-out: IC50 A431B1, monoculture, monoculture): 0.774 µM; IC50 ([6]; read-out: IC50 A431B1, triple co-culture, triple co-culture): 2.78 µM; IC50 (A431B1 cells): 0.974 µM; IC50 (Mes-Sa-B1 cells): 1.48 µM; IC50 (Mes-Sa cells [7]): 4.89 µM; IC50 (A431G2 cells): 5.76 µM; IC50 (Mes-Sa/Dx5 cells [8]; read-out: IC50 Mes-Sa/DX5, monoculture, monoculture): 0.951 µM; IC50 (Mes-Sa/Dx5 cells [8]; read-out: IC50 Mes-Sa/DX5, triple co-culture, triple co-culture): 0.177 µM; IC50 (A431 cells [9]): 4.93 µM
S=P(N1CC1)(N1CC1)N1CC1 [NSC-6396, Thioplex] | 574 ± 283 µM | 57.6 µM | – | – | – | – | – | – | – | – | – | IC50 (OATP2B1 [10]): 18.7 µM; SR (Mes-Sa/DX5) (Mes-Sa/Dx5 cells [8]): 12.56; SR (A431-2B1 vs parental A431), screening of DTP Oncology Set IV [12]: 3.48; SR, co-culture [12]: 3.08^*
CO[C@@]12[C@H](COC(N)=O)C3=C(C(=O)C(C)=C(N)C3=O)N1C[C@@H]1N[C@@H]12 [NSC-26980, Mitomycin] | – | – | – | – | – | – | – | – | – | – | – | SR (Mes-Sa-B1) [2]: 0.56; SR (Mes-Sa/DX5) (Mes-Sa/Dx5 cells [13]): 4.407
COc1cc([C@@H]2c3cc4c(cc3[C@@H](O[C@@H]3O[C@@H]5CO[C@@H](c6cccs6)O[C@H]5[C@H](O)[C@H]3O)[C@H]3COC(=O)[C@H]23)OCO4)cc(OC)c1O [NSC-122819, Teniposide] | 4.59 ± 0.4 µM | 0.45 µM | 0.83 µM | 41.88 | 5.43 | 75.25 | 6.02^* | 6.1^** | 4.78 | 0.07 µM | 0.14 µM | –

Second part, led by results:

IC50 (OATP2B1 [11]) | SMILES | IC50 (A431 cells [1]; [15]) | IC50 (A431 cells [1]; [16]) | RR (Mes-Sa-B1) [2] | RR (A431B1) [6] | RR (Dx5) (Mes-Sa/Dx5 cells [8]) | SR, co-culture [12, 17] | SR, monoculture [12, 18] | SR (A431-2B1 vs parental A431), screening of DTP Oncology Set IV [12, 19] | IC50 at […] (OATP2B1 [14]) | IC50 at […] (OATP2B1 [14]; [20]) | further results
1.88 ± 0.32 µM | COc1cc([C@@H]2c3cc4c(cc3[C@@H](O[C@@H]3O[C@@H]5CO[C@@H](C)O[C@H]5[C@H](O)[C@H]3O)[C@H]3COC(=O)[C@H]23)OCO4)cc(OC)c1O [NSC-141540, Etoposide] | 7.45 µM | 6.42 µM | 16.97 | > 4.14 | > 61.73 | 9.06^** | 3.2^* | 3.017 | 0.82 µM | 1.99 µM | IC50 (A431 cells [1]; Homo sapiens, A-431, read-out: IC50 A431, monoculture): 6.1 µM; IC50 (A431 cells [1]; Homo sapiens, A-431, read-out: IC50 A431, triple co-culture): 1.69 µM; IC50 at […] (ABCG2): 4.05 µM; IC50 at […] (ABCG2; A431-G2 mOrange cells (ABCG2-expressing), monoculture): 12 µM; IC50 at […] (ABCB1 (P-glycoprotein)): 13.8 µM; IC50 at […] (ABCB1 (P-glycoprotein); A431-B1 mCherry cells (ABCB1-expressing), monoculture): 46.3 µM; IC50 (A431B1 cells; Homo sapiens): 5.49 µM; IC50 (A431G2 cells; Homo sapiens): 3.43 µM; IC50 (A431 cells [9]; Homo sapiens, A-431): 1.19 µM
11.3 ± 0.38 µM | CC(=O)O[C@@]12CO[C@@H]1C[C@H](O)[C@@]1(C)C(=O)[C@H](O)C3=C(C)[C@@H](OC(=O)[C@H](O)[C@@H](NC(=O)OC(C)(C)C)c4ccccc4)C[C@@](O)([C@@H](OC(=O)c4ccccc4)[C@H]21)C3(C)C [NSC-628503, Docetaxel] | 0.08 µM | 0.00097 µM | 275.00 | 26.38 | 295.00 | – | 4.35^* | 4.00 | 0.002 µM | 0.00022 µM | –
124 ± 6.42 µM | CCCCCOC(=O)Nc1nc(=O)n([C@@H]2O[C@H](C)[C@@H](O)[C@H]2O)cc1F [NSC-712807, Capecitabine] | 205 µM | 391 µM | – | – | – | 4.62^** | 3.04^** | 3.41 | 44.5 µM | 129 µM | –
